# Measurements from patent publication US7601336B2, “Pharmaceutical aerosol composition” (Chiesi Farmaceutici S.p.A., priority 1997, dated 2009).
# Like-named read-outs stand apart in the source and are kept apart here.
# Tests used:
# [1] = BDP as a solution in HFA 134a (formulations of EP 0553298), reported in literature; cited from earlier work
# [2] = Aerodynamic particle size distribution by Andersen Cascade Impactor (ACI), ten cumulative actuations, drug on plates by HPLC; format: physicochemical
# Experimental: The aerosol compositions of the invention described below were prepared by the following method. The required components of a composition were added into a can in the following order: drug, non-volatile additive, absolute ethanol. After crimping of the valve on to the can, the propellant was added through the valve. The weight gain of the can after each component was added was recorded to allow the percentage, by weight, of each component in the formulation to be calculated. The aerodynamic particle size distribution of each formulation was characterized using a Multistage Cascade Impactor according to the procedure described in the European Pharmacopoeia 2nd edition, 1995, part V.5.9.1. pages 15-17. In this specific case an Andersen Cascade Impactor (ACI) was used. Results represented were obtained from ten cumulative actuations or a formulation. Deposition of the drug on each ACI plate was determined by high pressure liquid chromatography. The mass median aerodynamic diameter (MMAD) and geometric standard deviation (GSD) were calculated from plots of the cumulative percentage undersize of drug collected on each ACI plate (probit scale), against the upper cut off diameter for each respective ACI plate (log10 scale). The fine particle dose of each formulation was determined from the mass of drug collected on Stages 2 through to Filter (<5.8 μm) divided by the number of actuations per experiment.
# [3] = BDP 10 mg/10 ml, ethanol 7.9%, HFA 134a, actuator orifice 0.25 mm
# [4] = BDP 10 mg/10 ml, ethanol 12.9-13.0%, HFA 134a, actuator orifice 0.25 mm
# [5] = BDP 10 mg/10 ml, ethanol 12.9 ± 0.1% (w/w), HFA 134a, propylene glycol 0.0% (w/w), actuator orifice 0.42 mm
# [6] = BDP 10 mg/10 ml, ethanol 12.9 ± 0.1% (w/w), HFA 134a, propylene glycol 1.1% (w/w), actuator orifice 0.42 mm
# [7] = BDP 10 mg/10 ml, ethanol 12.9 ± 0.1% (w/w), HFA 134a, propylene glycol 3.2% (w/w), actuator orifice 0.42 mm
# [8] = BDP 10 mg/10 ml, ethanol 12.9 ± 0.1% (w/w), HFA 134a, propylene glycol 6.8% (w/w), actuator orifice 0.42 mm
# [9] = BDP 10 mg/10 ml, ethanol 13.6%, H2O 0.5%, HFA 134a, actuator orifice 0.33 mm
# [10] = BDP 10 mg/10 ml, ethanol 13.7%, H2O 0.1%, HFA 134a, actuator orifice 0.33 mm
# [11] = BDP 20 mg/10 ml, ethanol 7.9%, HFA 134a, actuator orifice 0.25 mm
# [12] = BDP 20 mg/10 ml, ethanol 13.0%, HFA 134a, actuator orifice 0.25 mm
# [13] = BDP 50 mg/10 ml, ethanol 14.9%, H2O 0.1%, HFA 134a, actuator orifice 0.33 mm
# [14] = BDP 50 mg/10 ml, ethanol 14.9%, H2O 0.5%, HFA 134a, actuator orifice 0.33 mm
# [15] = BDP 50 mg/10 ml, ethanol 14.9 ± 0.1% (w/w), HFA 134a, PEG 0.0% (w/w), actuator orifice 0.33 mm
# [16] = BDP 50 mg/10 ml, ethanol 14.9 ± 0.1% (w/w), HFA 134a, PEG 400 1.1% (w/w), actuator orifice 0.33 mm
# [17] = BDP 50 mg/10 ml, ethanol 14.9 ± 0.1% (w/w), HFA 134a, PEG 8000 1.0% (w/w), actuator orifice 0.33 mm
# [18] = BDP 50 mg/10 ml, ethanol 15.0 ± 0.2% (w/w), HFA 134a, glycerol 0.0% (w/w), actuator orifice 0.25 mm
# [19] = BDP 50 mg/10 ml, ethanol 15.0 ± 0.2% (w/w), HFA 134a, glycerol 0.0% (w/w), actuator orifice 0.33 mm
# [20] = BDP 50 mg/10 ml, ethanol 15.0 ± 0.2% (w/w), HFA 134a, glycerol 1.0% (w/w), actuator orifice 0.25 mm
# [21] = BDP 50 mg/10 ml, ethanol 15.0 ± 0.2% (w/w), HFA 134a, glycerol 1.0% (w/w), actuator orifice 0.33 mm
# [22] = BDP 50 mg/10 ml, ethanol 15.0 ± 0.2% (w/w), HFA 134a, glycerol 1.3% (w/w), actuator orifice 0.25 mm
# [23] = BDP 50 mg/10 ml, ethanol 15.0 ± 0.2% (w/w), HFA 134a, glycerol 1.3% (w/w), actuator orifice 0.33 mm
# [24] = BDP 50 mg/10 ml, ethanol 15.0 ± 0.2% (w/w), HFA 134a, glycerol 1.6% (w/w), actuator orifice 0.25 mm
# [25] = BDP 50 mg/10 ml, ethanol 15.0 ± 0.2% (w/w), HFA 134a, glycerol 1.6% (w/w), actuator orifice 0.33 mm
# [26] = BDP 50 mg/10 ml, ethanol 15.0 ± 0.2% (w/w), HFA 227 fill to 12 ml, 0% (w/w) glycerol, actuator orifice 0.33 mm
# [27] = BDP 50 mg/10 ml, ethanol 15.0 ± 0.2% (w/w), HFA 227 fill to 12 ml, 1.42% (w/w) glycerol, actuator orifice 0.33 mm
# [28] = BDP 50 mg/10 ml, ethanol 15.2 ± 0.4% (w/w), HFA 134a, propylene glycol 0.0% (w/w), actuator orifice 0.42 mm
# [29] = BDP 50 mg/10 ml, ethanol 15.2 ± 0.4% (w/w), HFA 134a, propylene glycol 0.7% (w/w), actuator orifice 0.42 mm
# [30] = BDP 50 mg/10 ml, ethanol 15.2 ± 0.4% (w/w), HFA 134a, propylene glycol 2.8% (w/w), actuator orifice 0.42 mm
# [31] = BDP 50 mg/10 ml, ethanol 15.2 ± 0.4% (w/w), HFA 134a, propylene glycol 6.3% (w/w), actuator orifice 0.42 mm
# [32] = combination BDP 50 mg/10 ml + Salbutamol base 20 mg/10 ml, ethanol 15.4 ± 0.2% (w/w), HFA 134a, glycerol 0%, oleic acid 0%, actuator exit orifice 0.33 mm
# [33] = combination BDP 50 mg/10 ml + Salbutamol base 20 mg/10 ml, ethanol 15.4 ± 0.2% (w/w), HFA 134a, glycerol 0%, oleic acid 0.3%, actuator exit orifice 0.33 mm
# [34] = combination BDP 50 mg/10 ml + Salbutamol base 20 mg/10 ml, ethanol 15.4 ± 0.2% (w/w), HFA 134a, glycerol 0%, oleic acid 1.3%, actuator exit orifice 0.30 mm
# [35] = combination BDP 50 mg/10 ml + Salbutamol base 20 mg/10 ml, ethanol 15.4 ± 0.2% (w/w), HFA 134a, glycerol 1.2%, oleic acid 0.3%, actuator exit orifice 0.30 mm
structure (smiles),measurement,setting,value
"CCC(=O)OCC(=O)[C@@]1(OC(=O)CC)[C@@H](C)C[C@H]2[C@@H]3CCC4=CC(=O)C=C[C@]4(C)[C@@]3(Cl)[C@@H](O)C[C@@]21C [BDP, beclomethasone dipropionate]",MMAD,[1],1.1 μm
same,Fine particle dose,[2]; [3],31.1 µg
same,MMAD ± GSD,[2]; [3],0.8 ± 1.8
same,Mean emitted dose,[2]; [3],44.7 µg
same,Fine particle dose,[2]; [4],24.5 µg
same,MMAD ± GSD,[2]; [4],0.9 ± 2.0
same,Mean emitted dose,[2]; [4],45.1 µg
same,Fine particle dose,[2]; [5],10.3 µg
same,MMAD ± GSD,[2]; [5],1.1 ± 2.3 μm
same,Mean emitted dose,[2]; [5],41.8 µg
same,Fine particle dose,[2]; [6],9.3 µg
same,MMAD ± GSD,[2]; [6],1.6 ± 3.4 μm
same,Mean emitted dose,[2]; [6],44.0 µg
same,Fine particle dose,[2]; [7],7.3 µg
same,MMAD ± GSD,[2]; [7],2.9 ± 4.1 μm
same,Mean emitted dose,[2]; [7],43.6 µg
same,Fine particle dose,[2]; [8],4.9 µg
same,MMAD ± GSD,[2]; [8],4.6 ± 3.9 μm
same,Mean emitted dose,[2]; [8],44.9 µg
same,Fine particle dose,[2]; [9],12.7 µg
same,MMAD ± GSD,[2]; [9],1.0 ± 2.1 μm
same,Mean emitted dose,[2]; [9],42.9 µg
same,Fine particle dose,[2]; [10],14.9 µg
same,MMAD ± GSD,[2]; [10],1.0 ± 2.2 μm
same,Mean emitted dose,[2]; [10],43.2 µg
same,Fine particle dose,[2]; [11],63.1 µg
same,MMAD ± GSD,[2]; [11],1.0 ± 1.8
same,Mean emitted dose,[2]; [11],84.8 µg
same,Fine particle dose,[2]; [12],46.2 µg
same,MMAD ± GSD,[2]; [12],1.0 ± 1.9
same,Mean emitted dose,[2]; [12],87.6 µg
same,Fine particle dose,[2]; [13],67.4 µg
same,MMAD ± GSD,[2]; [13],1.8 ± 2.2 μm
same,Mean emitted dose,[2]; [13],222.1 µg
same,Fine particle dose,[2]; [14],60.2 µg
same,MMAD ± GSD,[2]; [14],1.7 ± 2.2 μm
same,Mean emitted dose,[2]; [14],215.1 µg
same,Fine particle dose,[2]; [15],67.4 µg
same,MMAD ± GSD,[2]; [15],1.8 ± 2.2 μm
same,Mean emitted dose,[2]; [15],222.1 µg
same,Fine particle dose,[2]; [16],55.6 µg
same,MMAD ± GSD,[2]; [16],2.5 ± 2.2 μm
same,Mean emitted dose,[2]; [16],218.9 µg
same,Fine particle dose,[2]; [17],55.6 µg
same,MMAD ± GSD,[2]; [17],2.5 ± 2.2 μm
same,Mean emitted dose,[2]; [17],215.0 µg
same,Fine particle dose,[2]; [18],105.9 µg
same,MMAD ± GSD,[2]; [18],1.4 ± 1.9 μm
same,Mean emitted dose,[2]; [18],205.8 µg
same,Fine particle dose,[2]; [19],67.4 µg
same,MMAD ± GSD,[2]; [19],1.8 ± 2.2 μm
same,Mean emitted dose,[2]; [19],222.1 µg
same,Fine particle dose,[2]; [20],94.4 µg
same,MMAD ± GSD,[2]; [20],2.4 ± 2.0 μm
same,Mean emitted dose,[2]; [20],218.3 µg
same,Fine particle dose,[2]; [21],55.9 µg
same,MMAD ± GSD,[2]; [21],2.8 ± 2.2 μm
same,Mean emitted dose,[2]; [21],227.9 µg
same,Fine particle dose,[2]; [22],100.3 µg
same,MMAD ± GSD,[2]; [22],2.6 ± 2.0 μm
same,Mean emitted dose,[2]; [22],220.8 µg
same,Fine particle dose,[2]; [23],54.3 µg
same,MMAD ± GSD,[2]; [23],3.1 ± 2.3 μm
same,Mean emitted dose,[2]; [23],228.4 µg
same,Fine particle dose,[2]; [24],96.6 µg
same,MMAD ± GSD,[2]; [24],2.7 ± 2.0 μm
same,Mean emitted dose,[2]; [24],228.0 µg
same,Fine particle dose,[2]; [25],50.9 µg
same,MMAD ± GSD,[2]; [25],3.1 ± 2.3 μm
same,Mean emitted dose,[2]; [25],231.7 µg
same,FPD,[2]; [26],62.1 µg
same,GSD,[2]; [26],2.6
same,MMAD,[2]; [26],2.2 μm
same,Mean emitted dose,[2]; [26],221.25 µg
same,FPD,[2]; [27],43.5 µg
same,GSD,[2]; [27],2.4
same,MMAD,[2]; [27],4.1 μm
same,Mean emitted dose,[2]; [27],230.5 µg
same,Fine particle dose,[2]; [28],41.6 µg
same,MMAD ± GSD,[2]; [28],1.7 ± 2.3 μm
same,Mean emitted dose,[2]; [28],209.1 µg
same,Fine particle dose,[2]; [29],41.1 µg
same,MMAD ± GSD,[2]; [29],2.1 ± 2.7 μm
same,Mean emitted dose,[2]; [29],218.4 µg
same,Fine particle dose,[2]; [30],32.1 µg
same,MMAD ± GSD,[2]; [30],3.3 ± 3.2 μm
same,Mean emitted dose,[2]; [30],204.2 µg
same,Fine particle dose,[2]; [31],25.2 µg
same,MMAD ± GSD,[2]; [31],4.4 ± 3.8 μm
same,Mean emitted dose,[2]; [31],242.6 µg
same,Emitted dose,[2]; [32],208.9 µg
same,FPD,[2]; [32],67.8 µg
same,GSD,[2]; [32],2.4
same,MMAD,[2]; [32],1.7 μm
same,Emitted dose,[2]; [33],212.7 µg
same,FPD,[2]; [33],60.6 µg
same,GSD,[2]; [33],2.3
same,MMAD,[2]; [33],2.2 μm
same,Emitted dose,[2]; [34],212.5 µg
same,FPD,[2]; [34],58.5 µg
same,GSD,[2]; [34],2.2
same,MMAD,[2]; [34],2.4 μm
same,Emitted dose,[2]; [35],210.8 µg
same,FPD,[2]; [35],63.3 µg
same,GSD,[2]; [35],2.1
same,MMAD,[2]; [35],2.9 μm
